Experimental data published in ChEMBL document CHEMBL1201862, “PubChem BioAssay data set” (2004).
Where a name gives a salt, the structure may show the parent alone. Activity calls are given as the source filed them.

Columns and labels:
[1] = Luminescence-based cell-based high throughput dose response assay to identify activators of the DAF-12 from the parasite S. stercoralis (ssDAF-12).; assay type: functional
[2] = molecular target: T1, Oxysterols receptor LXR-beta (Homo sapiens, UniProt P55055); assay: LXR agonists, Gal4 luciferase reporter, dose response, counter-screen for ssDAF-12 agonist project, cell-based, luminescence, HEK293, S. stercoralis campaign (AID 720737); assay type: functional; settings: read-out: IC50 (the source's name)
T1 sequence (P55055 whole entry): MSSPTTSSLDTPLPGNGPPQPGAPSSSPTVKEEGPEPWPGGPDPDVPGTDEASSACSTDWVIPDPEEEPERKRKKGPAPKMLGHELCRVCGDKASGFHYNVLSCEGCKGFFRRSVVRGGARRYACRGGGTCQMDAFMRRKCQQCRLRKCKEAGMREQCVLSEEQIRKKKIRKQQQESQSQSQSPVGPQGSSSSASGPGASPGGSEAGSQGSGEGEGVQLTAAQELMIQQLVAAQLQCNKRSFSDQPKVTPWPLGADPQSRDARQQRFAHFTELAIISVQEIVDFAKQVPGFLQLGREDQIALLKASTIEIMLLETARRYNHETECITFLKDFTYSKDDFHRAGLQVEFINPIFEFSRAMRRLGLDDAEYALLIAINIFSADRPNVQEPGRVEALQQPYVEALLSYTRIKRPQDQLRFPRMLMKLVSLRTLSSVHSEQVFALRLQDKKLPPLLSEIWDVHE

[3] = molecular target: T2, Heat shock factor protein 1 (Mus musculus, UniProt P38532); assay: enhancement of HSF1-driven luciferase signal – cell-based, NIH3T3, luminescence, dose retest, confirmation (AID 435004); assay type: functional;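 note: stress induced by proteasome inhibitor MG132 added 30 min after compound; luciferase reporter driven by HSF1 response element in NIH3T3 cells; actives raise luminescence as potentiators of the MG132 stress response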
T2 sequence (P38532 whole entry): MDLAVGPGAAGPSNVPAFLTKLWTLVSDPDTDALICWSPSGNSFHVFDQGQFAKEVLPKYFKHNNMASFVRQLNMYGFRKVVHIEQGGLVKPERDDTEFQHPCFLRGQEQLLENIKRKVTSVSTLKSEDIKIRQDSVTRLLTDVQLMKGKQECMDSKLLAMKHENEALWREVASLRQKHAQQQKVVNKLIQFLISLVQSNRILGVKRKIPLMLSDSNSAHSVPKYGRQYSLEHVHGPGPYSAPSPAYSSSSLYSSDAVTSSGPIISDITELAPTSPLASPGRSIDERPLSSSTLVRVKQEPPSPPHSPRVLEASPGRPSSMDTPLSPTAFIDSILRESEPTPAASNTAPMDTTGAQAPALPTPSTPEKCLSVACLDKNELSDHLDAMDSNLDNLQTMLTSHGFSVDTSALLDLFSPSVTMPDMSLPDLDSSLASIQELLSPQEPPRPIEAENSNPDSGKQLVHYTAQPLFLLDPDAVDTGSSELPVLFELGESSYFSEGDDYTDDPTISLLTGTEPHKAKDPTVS

[4] = blockers of HIV-1 envelope-mediated cell-cell fusion – cherry-pick, dose response (AID 652057); assay type: functional, cell-based
[5] = HIV-1 AD8 envelope cell-cell fusion blockers – cherry-pick, dose response (AID 652062); assay type: functional, cell-based;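 note: luciferase signal from cell-cell fusion driven by HIV-1 clade B AD8 Env; potency is for inhibitors of fusion seen as a drop in luminescence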
[6] = off-target signal loss in HeLa-CEM21 co-culture – HeLa F-luc CTL cells, cherry-picked, counter-screen for HIV-1 Env fusion inhibitor project, dose response (AID 652040); assay type: functional, cell-based;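 note: potency for signal decrease marking cytotoxic or nonspecific inhibition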
[7] = blockers of HIV-1 ZM109 envelope-driven cell-cell fusion – HeLa effector, CEM target cells, luciferase, cherry-pick, dose response (AID 652058); assay type: functional, cell-based;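 note: luciferase signal from HIV-1 Env mediated cell-cell fusion of effector and target cells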
[8] = Luminescence Cell-Based Dose Response to Identify Activators of Luciferase Translation or Activity in H4-C Neuroglioblastoma Cells. [Related pubchem assays: 1829 (Project Summary), 1814 (Primary HTS)]; assay type: functional
[9] = Luminescence Cell-Based Dose Confirmation to Identify Activators of 5'UTR Stem-Loop Driven Alpha-Synuclein mRNA Translation in H4 Neuroglioblastoma Cells. [Related pubchem assays: 1829 (Project Summary), 1814 (Primary HTS)]; assay type: functional
[10] = Luminescence Cell-Based Dose Response HTS to Identify Activators of Luciferase Translation or Activity in H4 […] Cells. [Related pubchem assays: 1829 (Project Summary), 1814 (Primary HTS)]; assay type: functional
[11] = Luminescence Cell-Based Dose Response to Identify Activators of 5'UTR Stem-Loop Driven Prion Protein mRNA Translation in H4-C Neuroglioblastoma Cells. [Related pubchem assays: 1829 (Project Summary), 1814 (Primary HTS)]; assay type: functional
[12] = molecular target: T3, DNA repair protein RAD52 homolog (Homo sapiens, UniProt P43351); assay type: functional, biochemical
T3 sequence (P43351 whole entry): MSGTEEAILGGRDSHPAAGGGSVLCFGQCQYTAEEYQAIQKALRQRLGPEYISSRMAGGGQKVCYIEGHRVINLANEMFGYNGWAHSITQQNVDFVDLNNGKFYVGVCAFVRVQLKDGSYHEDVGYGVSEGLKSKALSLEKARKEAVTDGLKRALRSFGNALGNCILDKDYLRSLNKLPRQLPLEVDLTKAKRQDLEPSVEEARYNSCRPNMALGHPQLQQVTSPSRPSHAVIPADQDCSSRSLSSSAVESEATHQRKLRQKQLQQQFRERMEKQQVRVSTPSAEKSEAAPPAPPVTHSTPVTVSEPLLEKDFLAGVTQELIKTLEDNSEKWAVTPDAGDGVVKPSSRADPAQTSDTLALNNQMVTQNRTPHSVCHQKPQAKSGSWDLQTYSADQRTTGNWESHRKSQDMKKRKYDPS

[13] = molecular target: T4, Probable nicotinate-nucleotide adenylyltransferase (Staphylococcus aureus (strain N315), UniProt P65502); assay type: functional, Staphylococcus aureus subsp. aureus N315; settings: read-out: IC50_Mean;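 for IC50 Mean: confirmatory dose-response retesting of NadD inhibitor hits first found in an ultra-high-throughput screen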
T4 sequence (P65502 whole entry): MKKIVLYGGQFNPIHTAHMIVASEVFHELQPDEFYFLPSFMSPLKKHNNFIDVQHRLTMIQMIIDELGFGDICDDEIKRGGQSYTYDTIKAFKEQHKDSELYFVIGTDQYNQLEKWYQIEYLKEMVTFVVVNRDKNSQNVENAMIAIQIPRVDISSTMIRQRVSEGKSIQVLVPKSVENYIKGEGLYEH

[14] = molecular target: T4, Probable nicotinate-nucleotide adenylyltransferase; assay type: functional, Staphylococcus aureus subsp. aureus N315
[15] = molecular target: T5, Adenosylmethionine-8-amino-7-oxononanoate aminotransferase (Mycobacterium tuberculosis, UniProt P9WQ81); assay: Mycobacterium tuberculosis BioA enzyme inhibitor Measured in Biochemical System Using Plate Reader - 2163-02_Inhibitor_Dose_CherryPick_Activity.; assay type: functional, Mycobacterium tuberculosis UT205
T5 sequence (P9WQ81 whole entry): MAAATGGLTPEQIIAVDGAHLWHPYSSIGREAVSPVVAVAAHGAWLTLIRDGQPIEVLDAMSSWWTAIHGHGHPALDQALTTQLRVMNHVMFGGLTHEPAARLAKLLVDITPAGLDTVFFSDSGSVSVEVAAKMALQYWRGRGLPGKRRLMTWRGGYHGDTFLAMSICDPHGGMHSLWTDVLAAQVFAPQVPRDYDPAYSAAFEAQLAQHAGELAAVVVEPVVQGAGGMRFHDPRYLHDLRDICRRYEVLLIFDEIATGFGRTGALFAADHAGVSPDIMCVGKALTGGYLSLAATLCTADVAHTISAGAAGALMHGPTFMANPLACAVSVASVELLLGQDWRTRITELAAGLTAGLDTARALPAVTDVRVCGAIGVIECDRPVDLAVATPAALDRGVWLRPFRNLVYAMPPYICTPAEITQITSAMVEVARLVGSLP

[16] = molecular target: T6, High affinity choline transporter 1 (Homo sapiens, UniProt Q9GZV3); assay: human choline transporter blockers, potency – cell-based, 5-point CRC, membrane potential dye, dose response (AID 504840); assay type: functional
T6 sequence (Q9GZV3 whole entry): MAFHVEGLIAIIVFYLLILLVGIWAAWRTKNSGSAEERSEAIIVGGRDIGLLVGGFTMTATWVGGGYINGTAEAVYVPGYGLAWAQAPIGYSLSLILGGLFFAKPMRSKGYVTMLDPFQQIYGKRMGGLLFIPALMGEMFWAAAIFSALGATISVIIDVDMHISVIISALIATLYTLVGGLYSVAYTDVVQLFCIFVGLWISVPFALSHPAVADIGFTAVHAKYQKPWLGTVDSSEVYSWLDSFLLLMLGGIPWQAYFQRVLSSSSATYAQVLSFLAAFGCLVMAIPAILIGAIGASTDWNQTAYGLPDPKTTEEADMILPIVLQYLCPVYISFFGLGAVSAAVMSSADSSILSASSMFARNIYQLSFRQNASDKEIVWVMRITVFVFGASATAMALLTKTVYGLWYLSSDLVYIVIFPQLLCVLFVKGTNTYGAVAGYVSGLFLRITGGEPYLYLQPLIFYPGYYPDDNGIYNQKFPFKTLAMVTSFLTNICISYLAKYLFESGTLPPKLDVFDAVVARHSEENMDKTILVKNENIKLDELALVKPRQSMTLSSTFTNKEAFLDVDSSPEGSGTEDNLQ

[17] = molecular target: T7, Caspase-6 (Homo sapiens, UniProt P55212); assay: inhibition of CASP6 peptide cleavage – biochemical, VEID-R110 fluorescence, cherry-pick, dose response (AID 720632)
T7 sequence (P55212 whole entry): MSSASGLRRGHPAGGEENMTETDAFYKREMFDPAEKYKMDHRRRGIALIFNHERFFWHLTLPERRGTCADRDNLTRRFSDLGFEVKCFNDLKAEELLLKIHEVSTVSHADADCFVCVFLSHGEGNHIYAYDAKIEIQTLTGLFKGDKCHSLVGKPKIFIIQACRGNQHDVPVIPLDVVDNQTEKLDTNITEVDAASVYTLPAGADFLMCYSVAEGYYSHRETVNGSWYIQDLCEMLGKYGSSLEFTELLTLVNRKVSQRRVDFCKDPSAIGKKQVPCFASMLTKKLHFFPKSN

[18] = molecular target: T8, Sentrin-specific protease 8 (Homo sapiens, UniProt Q96LD8); assay type: functional
T8 sequence (Q96LD8 whole entry): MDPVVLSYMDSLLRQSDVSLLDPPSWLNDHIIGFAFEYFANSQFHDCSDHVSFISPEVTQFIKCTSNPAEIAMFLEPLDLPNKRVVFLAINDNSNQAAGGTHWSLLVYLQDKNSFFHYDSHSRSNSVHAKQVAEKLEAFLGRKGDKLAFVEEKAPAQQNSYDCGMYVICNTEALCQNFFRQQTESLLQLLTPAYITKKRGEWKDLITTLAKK

[19] = molecular target: T8, Sentrin-specific protease 8; assay type: functional; remark: listed apart in the source
[20] = activation of miR-122 Renilla sensor silencing – cell-based, Huh7 psiCHECK-miR122, Renilla luciferase, cherry-picked, dose response (AID 651956); assay type: functional;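 note: huh7 hepatoma cells stably carrying a psiCHECK-2 miR-122 sensor plasmid; renilla luciferase signal reporting endogenous miR-122 activity after 48 h compound exposure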
[21] = molecular target: Genome polyprotein (dengue virus type 2, UniProt P29990); assay: flavivirus cap methylation enzyme inhibition – biochemical, confirmation dose response, primary screen (AID 588689); assay type: functional
Sequence of Genome polyprotein (P29990 2492-3391 limits assumed): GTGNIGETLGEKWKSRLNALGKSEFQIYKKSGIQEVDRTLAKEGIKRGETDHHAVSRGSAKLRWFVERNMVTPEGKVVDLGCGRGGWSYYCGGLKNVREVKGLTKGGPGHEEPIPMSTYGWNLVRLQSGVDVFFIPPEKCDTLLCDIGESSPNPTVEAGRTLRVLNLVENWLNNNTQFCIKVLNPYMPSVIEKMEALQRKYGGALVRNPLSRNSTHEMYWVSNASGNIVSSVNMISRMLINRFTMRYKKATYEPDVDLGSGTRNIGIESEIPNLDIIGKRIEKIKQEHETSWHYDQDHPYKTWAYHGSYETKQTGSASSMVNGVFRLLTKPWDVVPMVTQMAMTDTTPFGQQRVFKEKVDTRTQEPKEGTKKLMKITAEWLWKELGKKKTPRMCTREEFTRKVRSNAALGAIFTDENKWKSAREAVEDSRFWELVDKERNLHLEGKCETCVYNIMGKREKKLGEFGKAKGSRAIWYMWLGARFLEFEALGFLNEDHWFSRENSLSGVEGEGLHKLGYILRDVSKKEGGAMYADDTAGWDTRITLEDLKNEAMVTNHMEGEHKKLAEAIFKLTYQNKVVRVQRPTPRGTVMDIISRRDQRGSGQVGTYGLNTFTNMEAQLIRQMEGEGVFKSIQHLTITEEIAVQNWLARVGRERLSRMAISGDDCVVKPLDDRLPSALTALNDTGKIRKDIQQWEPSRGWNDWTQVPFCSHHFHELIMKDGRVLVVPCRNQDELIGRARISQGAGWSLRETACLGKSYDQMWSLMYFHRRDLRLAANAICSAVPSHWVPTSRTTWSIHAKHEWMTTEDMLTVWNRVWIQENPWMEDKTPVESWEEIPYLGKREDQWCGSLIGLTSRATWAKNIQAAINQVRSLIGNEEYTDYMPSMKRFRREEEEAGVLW

[22] = viability loss of HPDE-C7K cells – cell-based, fluorescence, HTS, primary screen (AID 431); assay type: functional; settings: Homo sapiens
[23] = HPDE-C7 pancreatic duct cell viability loss – fluorescence, HTS (AID 430); assay type: functional, cell-based; settings: Homo sapiens
[24] = microbe, parasite or virus in culture; assay type: functional; settings: Mycobacterium tuberculosis
[25] = molecular target: FAD-linked sulfhydryl oxidase ALR (Homo sapiens, UniProt P55789); assay: ALR-catalysed DTT oxidation blockers – biochemical, H2O2 detection, luminescence, cherry-pick, dose response (AID 493248)
Sequence of FAD-linked sulfhydryl oxidase ALR (P55789 whole entry): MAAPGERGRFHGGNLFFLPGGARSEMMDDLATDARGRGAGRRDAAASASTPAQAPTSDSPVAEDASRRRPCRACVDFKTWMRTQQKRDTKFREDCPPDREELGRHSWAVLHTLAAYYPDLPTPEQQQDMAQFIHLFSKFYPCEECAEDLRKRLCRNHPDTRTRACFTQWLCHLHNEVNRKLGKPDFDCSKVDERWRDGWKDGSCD

SMILES: CCC(C)Sc1nc2c3ccccc3nc-2c(O)n1C (configuration not stated)
- IC50 [1]: > 67.5 µM (inactive)
- EC50 [2]: > 67.5 µM (inactive)
- EC50 [3]: > 260 µM (inactive)

SMILES: COc1ccc([C@@H]2[C@@H]3C(=O)N(C(C)(C)C)C(=O)[C@@H]3[C@]3(CC(C)C)C(=O)N(c4cccc(Br)c4)C(=O)N23)cc1
- AC50 [4]: < 0.26 µM (active)
- AC50 [5]: < 0.26 µM (active)
- AC50 [6]: < 0.26 µM (active)
- AC50 [7]: < 0.26 µM (active)

SMILES: Cc1nc2c(C(=O)N3CCCCC3)cnn2c(C)c1Cc1ccccc1F
- EC50 [8]: 0.267 µM (active)
- EC50 [9]: > 12 µM (not active)
- EC50 [10]: < 0.1 µM (active)
- EC50 [11]: 0.57 µM (active)

SMILES: CCOC(=O)N1CCN(C(S)=Nc2ccc3nc(N4CCN(CC)CC4)cc(C)c3c2)CC1
- AC50 [12]: 15 µM (active)

SMILES: COc1ccc(CSc2nnc3nc(O)cc(N)n23)cc1
- IC50 [1]: > 67.6 µM (inactive)
- EC50 [2]: > 67.6 µM (inactive)

SMILES: C/C=C\C=C/C(=O)Nc1cccc(C2=NOC3(C2)C[C@@H](C(N)=O)N(C(=O)COc2ccc(Cl)cc2)C3)c1 (some centres not stated)
- IC50 [13]: 17.3 µM (active)
- IC50 [14]: 10.7 µM (active)

SMILES: CCN(CC)CCNC(=O)c1cn(CC)c2ccc(S(=O)(=O)N3CCc4ccccc4C3)cc2c1=O
- AC50 [15]: 2.88 µM (active)
- IC50 [16]: 11.2 µM (active)

SMILES: Cc1[nH]cnc1CN1CCc2c(c3ccccc3n2C)C1=O [ALOSETRON HYDROCHLORIDE]
- AC50 [17]: 11.5 µM (active)
- IC50 [18]: 18.2 µM (active)
- IC50 [19]: 7.1 µM (active)

SMILES: O=C(c1ccc([N+](=O)[O-])cc1)N1CCOCC1
- IC50 [1]: > 67.4 µM (inactive)
- EC50 [2]: > 67.4 µM (inactive)

SMILES: CC(=O)N(C[C@H]1N[C@H](CO)[C@@H]1c1ccc(-c2ccccc2)cc1)C(C)C
- AC50 [20]: 23.3 µM (active)

SMILES: COC/C=C/C1=CC2=CC(=O)C(C)(OC(=O)c3cnc4ccccc4n3)C(=O)C2=CN1C1CC1 (configuration not stated)
- IC50 [18]: 16.6 µM (active)
- IC50 [21]: > 100 µM (active)
- IC50 [19]: 6.36 µM (active)

SMILES: CN(C)CCCN1c2ccccc2Sc2ccc(Cl)cc21 [CHLORPROMAZINE HYDROCHLORIDE]
- EC50 [22]: > 20 µM (not active)
- EC50 [23]: > 20 µM (not active)
- CC50 [24]: 26 µM (active)
- AC50 [12]: < 25.3 µM (active)
- AC50 [25]: 1.01 µM (active)
